The source of these data is publication doi:10.1101/2023.10.20.563248v1 (biorxiv, 2023).

The target of experiment [1] is MST4 (full-length, NanoLuc fusion) (Homo sapiens, UniProt Q9P289). Kind of experiment: NanoBRET tracer displacement, HEK293T. In kind it is cell-based. The conditions noted are these: intact cells; […] °C, […] h; competitive with tracer. For orientation: In BRET a luciferase serves as donor, and the signal depends on an acceptor being close.
Experiment [2] concerns the target MST3 (full-length, NanoLuc fusion) (Homo sapiens, UniProt Q9Y6E0). The experiment can be described thus: cell-based.
Experiment [3] deals with MST2 (full-length, NanoLuc fusion) (Homo sapiens, UniProt Q13188). Kind of experiment: NanoBRET tracer displacement, HEK293T. The class given is cell-based. The conditions noted are these: intact cells; […] °C, […] h; competitive with tracer.
Experiment [4] addresses MST1 (full-length, NanoLuc fusion) (Homo sapiens, UniProt Q13043). The experiment can be described thus: NanoBRET tracer displacement, HEK293T. The class given is cell-based. The settings on record: intact cells; […] °C, […] h; competitive with tracer.

The structures appear in SMILES notation.

MST3 (full-length, NanoLuc fusion), sequence (Q9Y6E0 whole entry, the tested form may be a part): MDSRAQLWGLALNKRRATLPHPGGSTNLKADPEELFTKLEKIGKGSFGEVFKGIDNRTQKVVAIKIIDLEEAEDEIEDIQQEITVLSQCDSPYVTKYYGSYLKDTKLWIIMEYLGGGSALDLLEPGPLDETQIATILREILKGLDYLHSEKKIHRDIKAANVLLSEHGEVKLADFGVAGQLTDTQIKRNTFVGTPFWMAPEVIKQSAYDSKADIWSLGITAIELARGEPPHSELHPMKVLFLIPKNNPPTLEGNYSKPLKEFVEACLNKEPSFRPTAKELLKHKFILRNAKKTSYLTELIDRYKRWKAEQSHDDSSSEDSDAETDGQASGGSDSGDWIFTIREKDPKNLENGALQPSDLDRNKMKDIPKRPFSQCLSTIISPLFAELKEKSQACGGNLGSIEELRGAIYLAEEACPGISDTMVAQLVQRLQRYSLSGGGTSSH
MST4 (full-length, NanoLuc fusion), sequence (Q9P289 whole entry, the tested form may be a part): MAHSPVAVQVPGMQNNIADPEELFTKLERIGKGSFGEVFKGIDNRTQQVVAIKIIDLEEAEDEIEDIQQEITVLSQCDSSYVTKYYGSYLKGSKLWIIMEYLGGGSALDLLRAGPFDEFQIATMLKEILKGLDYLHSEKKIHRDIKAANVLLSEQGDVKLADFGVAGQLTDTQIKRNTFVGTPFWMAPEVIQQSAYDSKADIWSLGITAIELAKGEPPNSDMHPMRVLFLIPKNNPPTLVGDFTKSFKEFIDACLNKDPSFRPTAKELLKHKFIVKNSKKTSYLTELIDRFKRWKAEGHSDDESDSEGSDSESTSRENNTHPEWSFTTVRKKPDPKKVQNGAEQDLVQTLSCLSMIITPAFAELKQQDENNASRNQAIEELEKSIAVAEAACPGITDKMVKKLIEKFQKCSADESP
MST2 (full-length, NanoLuc fusion), sequence (Q13188 whole entry, the tested form may be a part): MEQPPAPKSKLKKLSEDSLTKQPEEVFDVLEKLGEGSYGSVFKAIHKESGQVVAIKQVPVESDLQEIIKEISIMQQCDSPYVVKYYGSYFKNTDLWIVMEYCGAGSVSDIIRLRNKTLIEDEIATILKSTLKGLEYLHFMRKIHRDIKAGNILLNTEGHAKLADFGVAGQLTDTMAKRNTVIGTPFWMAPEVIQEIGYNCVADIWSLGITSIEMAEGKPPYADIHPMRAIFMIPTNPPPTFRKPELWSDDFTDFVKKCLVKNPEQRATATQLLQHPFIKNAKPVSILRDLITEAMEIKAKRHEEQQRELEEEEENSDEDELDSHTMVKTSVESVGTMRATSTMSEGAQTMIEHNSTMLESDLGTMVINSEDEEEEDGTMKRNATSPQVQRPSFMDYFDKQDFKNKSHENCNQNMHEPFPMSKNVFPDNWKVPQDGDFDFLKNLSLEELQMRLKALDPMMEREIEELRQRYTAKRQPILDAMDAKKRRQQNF
MST1 (full-length, NanoLuc fusion), sequence (Q13043 whole entry, the tested form may be a part): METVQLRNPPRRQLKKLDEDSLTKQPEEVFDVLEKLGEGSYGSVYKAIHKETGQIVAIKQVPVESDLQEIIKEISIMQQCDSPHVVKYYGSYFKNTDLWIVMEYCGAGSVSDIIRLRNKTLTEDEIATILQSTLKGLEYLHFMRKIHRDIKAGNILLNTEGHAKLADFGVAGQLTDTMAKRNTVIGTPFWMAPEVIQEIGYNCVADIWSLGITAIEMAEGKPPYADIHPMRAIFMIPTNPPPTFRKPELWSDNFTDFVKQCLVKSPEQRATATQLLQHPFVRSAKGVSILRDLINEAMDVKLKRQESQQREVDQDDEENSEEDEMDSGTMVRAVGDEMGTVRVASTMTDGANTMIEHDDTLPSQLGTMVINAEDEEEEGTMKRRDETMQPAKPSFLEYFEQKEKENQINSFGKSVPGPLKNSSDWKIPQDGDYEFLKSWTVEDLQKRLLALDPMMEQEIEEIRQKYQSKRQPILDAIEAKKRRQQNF

As to `O=C1NCCCCCCNc2nc(c3ccccc3n2)Nc2cc1[nH]n2` [21e, (Z)-3^1H-2,5,12-triaza-1(4,2)-quinazolina-3(3,5)-pyrazolacyclododecaphan-4-one], the 50% effective concentration (EC50) (as a rule, the concentration that produces a half-maximal response) in experiment [1] stood at 2400 nM; in experiment [2], 1800 nM.
Take `N#CCc1ccc(Nc2nccc(Nc3cc(C4CC4)[nH]n3)n2)cc1` [compound 1, 1]: the 50% effective concentration (EC50) in experiment [3] was 110 nM; in experiment [4], 200 nM.
